Like-named read-outs stand apart in the source and are kept apart here.
Experiments:
K562 cells = assay: K562 cell culture and growth assay, 6 day MTT; assay type: cell-based, human; conditions: K562, 6 days, 4 or more experiments
Summary of the method: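 Cells (2×10^3/well) in RPMI with 10% fetal calf serum incubated with increasing compound concentrations in DMSO, with DMSO-matched controls. Growth quantitated after 6 days by MTT reduction to formazan.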

[1] = tested on: panel of approximately 60 different human tumor cell lines; assay: National Cancer Institute drug screen, mean-graph parameters; assay type: cell-based; conditions: mean over cell line panel, two days exposure; for GI50: Homo sapiens, 48 h, read-out: Tumor Cell Mean log GI50 (converted)
Summary of the method: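 About 60 human tumour cell lines in eight histology subpanels were exposed continuously to a concentration range for two days. GI50 (50% growth decrease versus untreated control), TGI (cell number equal to start) and LC50 (50% reduction versus start) were derived per cell line and summarised as mean-graph negative log10 values.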

[2] = tested on: minimum of 12 human cancer cell lines; assay: Hollow fiber assay in mice, point score; assay type: in vivo; conditions: for Hollow Fiber Assay IP score: first number of cell; for Hollow Fiber Assay SC score: second number of cell; for IP+SC score / SC score: hollow fiber assay
Protocol: Compounds satisfying Formulas 1 and 2 also have been tested for in vivo activity in the hollow fiber assay. See Example 12 below for the procedure used for the in vivo tests. Each compound tested was tested against a minimum of 12 human cancer cell lines. Data is reported as % T/C (i.e., the […]) for each of the 2 compound doses against each of the cell lines with separate values calculated for the intraperitoneal and subcutaneous samples, with a target value for % T/C being about 50 or less.
Compounds were selected for further in vivo testing in standard subcutaneous xenograft models on the basis of several hollow fiber assay criteria. These criteria include: (1) a % T/C of 50 or less in 10 of the 48 possible test combinations (12 cell lines×2 sites×2 compound doses); (2) activity at a distance (intrapentoneal drug/subcutaneous culture) in a minimum of 4 of the 24 possible combinations; and/or (3) a net cell kill of 1 or more cell lines in either implant site. To simplify evaluation, a point system has been adopted which allows rapid assessment of a compound's activity. A value of 2 is assigned for each compound dose which results in a 50% or greater reduction in viable cell mass. The intraperitoneal and subcutaneous samples were scored separately so that criteria (1) and (2) could be evaluated. Compounds with a combined IP+SC score≧20, an SC score≧8, or a net cell kill of one or more cell lines were referred for xenograft testing. These criteria have been statistically validated by comparing the activity outcomes of greater than 80 randomly selected compounds in the hollow fiber assay and in the xenograft testing.
This example describes the method used for in vivo testing of mice. Human cancer cells were cultivated in polyvinylidene fluoride (PVDF) hollow fibers. A sample of each cancer cell line was implanted intraperitoneally and subcutaneously in mice. Each mouse received a total of 6 fibers, 3 intraperitoneally and 3 subcutaneously, representing 3 distinct cancer cell lines. Three mice were treated with compounds made according to the present invention at each of two test doses intraperitoneally using a QD×4 treatment schedule. Vehicle controls consisted of 6 mice receiving the compound diluent only The fiber cultures were collected on the day following the last treatment. Anticancer effects were assessed by determining viable cell mass for each of the coil line using a formazan dye (MTT) conversion assay. From this, the % TIC was calculated using the average optical density of the compound-treated samples divided by the average optical density of the vehicle controls. In addition, the net increase in cell mass was determined for each sample as samples of fiber cultures were assessed for viable cell mass on the day of implantation into mice. This allowed cytostatic and cytocidal capacities of these compounds to be assessed.

[3] = Homo sapiens, 144 h, Table 10, mean ± S.E., read-out: IC50 (μM) 6dMTT
[4] = Table 10, mean ± S.E., read-out: IC50 (μM) 6dMTT
[5] = Homo sapiens, 144 h, Table 8, mean+S.E., read-out: IC50 (μM) 6 dMTT
[6] = Table 8, intraperitoneal fibers

SMILES | Tumor Cell Mean log TGI ([1]; Table 10) | Hollow Fiber Assay IP score ([2]; Table 10) | Hollow Fiber Assay SC score ([2]; Table 10) | Hollow Fiber Assay Total Ip and SC Score ([2]; Table 10) | IC50 (K562 cells; [5]) | Tumor Cell Mean log GI50 ([1]; Table 8) | Tumor Cell Mean log TGI ([1]; Table 8) | Hollow Fiber Assay IP score [2, 6] | Hollow Fiber Assay SC score ([2]; Table 8, subcutaneous fibers) | Hollow Fiber Assay Total Ip and SC Score ([2]; Table 8) | also measured
COC(=O)c1ccc(CCc2cc(O)c(Br)cc2O)cc1 | −4.54 | 0 + 0 = 0 | 0 + 0 = 0 | 0 + 0 = 0 | – | – | – | – | – | – | IC50 (K562 cells; [3]): 7 ± 0.5 µM; GI50 ([1]; Table 10): 12.3 µM
COC(=O)c1ccc(CCC2=CC(=O)C(Br)=CC2=O)cc1 | −4.43 | 0 + 0 = 0 | 0 + 0 = 0 | 0 + 0 = 0 | – | – | – | – | – | – | IC50 (K562 cells; [3]): 36.5 ± 1 µM; GI50 ([1]; Table 10): 14.1 µM
CC(C)OC(=O)c1ccc(CCC2=CC(=O)C(Br)=CC2=O)cc1 | −4.48 | 0 + 0 = 0 | 0 + 0 = 0 | 0 + 0 = 0 | – | – | – | – | – | – | IC50 (K562 cells; [4]): 59.8 ± 0.44 µM; Tumor Cell Mean log GI50 ([1]; Table 10): −4.85
CC(C)(C)OC(=O)c1ccc(NCc2cc(O)ccc2O)cc1 [COOC(CH3)3 / H / H, 4′-t-butylbenzoate-1′-N-2,5-dihydroxybenzylamine] | – | – | – | – | 16.4 µM | −5.66 | −5.03 | 2 | 2 | 4 | –
O=C(OCc1ccccc1)c1ccc(NCc2cc(O)ccc2O)cc1 [COOCH2Ph / H / H] | – | – | – | – | 12 µM | −5.85 | −5.35 | 6 | 2 | 8 | –
COC(=O)c1ccc(C=Cc2cc(O)ccc2O)cc1 [COOCH3 / 2,5-dihydoxyphenyl / CH═CH / H] | −4.81 | 2 | 4 | 6 | – | – | – | – | – | – | IC50 (K562 cells; [3]): 9.72 ± 0.49 µM; GI50 ([1]; Table 10): 3.31 µM
COC(=O)c1ccc(/C=C/C2=CC(=O)C=CC2=O)cc1 [COOCH3 / 2,5-quinoyl / CH═CH / H] | −4.40 | 2 | 0 | 2 | – | – | – | – | – | – | IC50 (K562 cells; [4]): 17.8 ± 0.22 µM; Tumor Cell Mean log GI50 ([1]; Table 10): −4.86
CC(C)OC(=O)c1ccc(CCC2=CC(=O)C=CC2=O)cc1 [COOCH(CH3)2 / 2,5-quinoyl / CH2—CH2 / H] | −4.58 | 0 + 0 = 0 | 0 + 0 = 0 | 0 + 0 = 0 | – | – | – | – | – | – | IC50 (K562 cells; [4]): 19.9 ± 0.5 µM; Tumor Cell Mean log GI50 ([1]; Table 10): −5.05
CC(C)OC(=O)c1ccc(NCc2cc(O)ccc2O)cc1Cl [COOCH(CH3)2 / Cl / H, 5′-chloro-4′-isopropylbenzoate-1′-N-2,5-dihydroxybenzylamine] | – | – | – | – | – | −5.46 | −5.65 | 2 | 0 | 2 | IC50 (K562 cells; Table 8, mean+S.E., read-out: IC50 (μM) 6 dMTT): 21.6 µM
CC(C)OC(=O)c1ccc(NCc2cc(O)ccc2O)cc1 [COOCH(CH3)2 / H / H] | – | – | – | – | 15.1 µM | −5.52 | −4.84 | 4 | 6 | 10 | –
CC(C)C(OC(=O)c1ccc(NCC2=CC(=O)C=CC2=O)cc1)C(C)C [COOCH[CH(CH3)2]2 / H / 2,5-quinoyl] | – | – | – | – | – | – | – | – | – | – | IC50 (K562 cells; Table 9, mean ± S.E., read-out: IC50 (μM) 6dMTT): 38.8 ± 12.8 µM; Tumor Cell Mean log GI50 ([1]; Table 9): −5.25; Tumor Cell Mean log TGI ([1]; Table 9): −4.78; Hollow Fiber Assay IP score ([2]; Table 9, intraperitoneal fibers): 2; Hollow Fiber Assay SC score ([2]; Table 9, subcutaneous fibers): 4; Hollow Fiber Assay Total Ip and SC Score ([2]; Table 9): 6
CC(C)C(OC(=O)c1ccc(NCc2cc(O)ccc2O)cc1)C(C)C [COOCH[CH(CH3)2]2 / H / H] | – | – | – | – | 9.98 µM | −5.91 | −5.35 | 4 | 2 | 6 | –
O=C(OC12CC3CC(CC(C3)C1)C2)c1ccc(NCc2cc(O)ccc2O)cc1 [Compound 6, 4′-adamantylbenzoate-1′-N-2,5-dihydroxybenzylamine] | – | – | – | – | 9.75 µM | −6.03 | −5.44 | 8 | 8 | 16 | IP+SC score [2]: 16; SC score [2]: 8
O=C(OCC12CC3CC(CC(C3)C1)C2)c1ccc(NCc2cc(O)ccc2O)cc1 [Compound 7, 4′-4′-adamantylmethylbenzoate-1′-N-2,5-dihydroxybenzylamine] | – | – | – | – | 12.8 µM | −5.89 | −5.09 | 12 | 8 | 20 | IP+SC score [2]: 20; SC score [2]: 8

— patent US6943191B1, “Disubstituted lavendustin A analogs and pharmaceutical composition comprising the analogs” (The United States of America as represented by the …, priority 1998, dated 2005)
